Source: patent US9161927B2, “Drug combinations containing PDE4 inhibitors and NSAIDs” (Boehringer Ingelheim International GmbH, priority 2009, dated 2015)
Where two headings read alike, the source gives them in different places.

Tests used:
male Wistar rats [1] = assay: Experiment 3: roflumilast-mediated weight loss, leukocytosis and neutrophilia in rats, with or without SC-560 or lumiracoxib; type: in vivo, rat; conditions: for leukocytosis (white blood cells, FIG. 2B on the left) / neutrophilia (neutrophils in % of white blood cells, FIG. 2B on the right): 95 hours after t0; for leukocytosis (white blood cells, FIG. 2B on the left) / neutrophilia (neutrophils in % of white blood cells, FIG. 2B on the right) / weight loss (body weight as percentage change from t0, FIG. 2A): p.o. for four days, roflumilast 10 mg/kg at 1300, SC-560 or lumiracoxib 2 mg/kg at 0800 and 1700, compared with control group
Procedure: (§1) Six male Wistar rats in each group were treated for four days with the following substances (all substances are given p.o.=orally):
(§2) Group 1 (“control group”): Six male Wistar rats were given a daily dose of 0.5% Natrosol (placebo) at the times 0800, 1300 and 1700 hours.
(§3) Group 2 (“roflumilast group”): Six male Wistar rats were given a daily dose of 0.5% Natrosol (placebo) at 0800 and 1700 hours and 10 mg/kg roflumilast (PDE4 inhibitor) at 1300 hours.
(§4) Group 6 (“lumiracoxib group”): Six male Wistar rats were given a daily dose of 2 mg/kg lumiracoxib (NSAID, selective for COX-2) at the times 0800 and 1700 hours and 0.5% Natrosol at 1300 hours.
The average±standard deviation of the body weights at time t0 was 306±11 g.
At the end of the experiment (95 hours after t0 (=the time of the first administration on day 1, 0800 hours)) the proportion of white blood cells (×1000 cells/μl blood, FIG. 2B, left-hand Figure) and the proportion of neutrophils (in % of white blood cells, FIG. 2B, right-hand Figure) were determined from the blood of 5 of the rats from the individual groups.

male Wistar rats [2] = assay: Experiment 4: roflumilast-mediated diarrhoea and mesentery histopathology in rats, with or without SC-560 or lumiracoxib; type: in vivo, rat; conditions: affected animals out of animals examined; p.o. for four days, 95 hours after t0; roflumilast 10 mg/kg at 1300, SC-560 or lumiracoxib 2 mg/kg at 0800 and 1700
Procedure: as §1, §2, §3, §4
(§5) At the end of the experiment (95 hours after t0 (=the time of the first administration on day 1, 0800 hours)) the rats from the individual groups were examined phenotypically and histopathologically for the presence of multifocal perivascular mononuclear infiltration (=inflammation parameter) in the mesentery and for the proliferation of fibroblasts in the mesentery. In addition, the occurrence of diarrhoea in the rats from the different groups was noted.

male Wistar rats [3] = type: in vivo; conditions: affected animals out of animals examined; p.o. for four days, 95 hours after t0; roflumilast 10 mg/kg at 1300, diclofenac 1 mg/kg at 0800 and 1700
Procedure: as §1, §2, §3
(§6) Group 3 (“roflumilast+diclofenac group”): Six male Wistar rats were given a daily dose of 1 mg/kg diclofenac (NSAID) at the times 0800 and 1700 hours and 10 mg/kg roflumilast (PDE4 inhibitor) at 1300 hours.
(§7) Group 4 (“diclofenac group”): Six male Wistar rats were given a daily dose of 1 mg/kg diclofenac (NSAID) at the times 0800 and 1700 hours and 0.5% Natrosol (placebo) at 1300 hours.
(§8) For pharmacokinetic analysis (determining the plasma levels of the substances) on day 4 one rat from each group was used; these rats were no longer available for other parameters under investigation.
as §5

male Wistar rats [4] = assay: Experiment 1: roflumilast-mediated weight loss, leukocytosis and neutrophilia in rats, with or without diclofenac
Procedure: as §1, §2, §3, §6, §7, §8
The average±standard deviation of the body weights at time t0 was 355±17 g.
At the end of the experiment (95 hours after t0 (=the time of the first administration on day 1, 0800)) the proportion of white blood cells (×1000 cells/μl blood, FIG. 1B, left-hand Figure) and the proportion of neutrophils (in % of white blood cells, FIG. 1B, right-hand Figure) were determined from the blood of 4 or 5 of the rats from the individual groups.

[5] = NSAID 2 mg/kg at 0800 and 1700 co-administered with roflumilast 10 mg/kg at 1300, p.o. for four days
[6] = 95 hours after t0, p.o. for four days, roflumilast 10 mg/kg at 1300, diclofenac 1 mg/kg at 0800 and 1700, compared with control group

Compound | leukocytosis (white blood cells, FIG. 2B on the left) (male Wistar rats [1]) | neutrophilia (neutrophils in % of white blood cells, FIG. 2B on the right) (male Wistar rats [1]) | protective effect on roflumilast-mediated leukocytosis (male Wistar rats [1]; [5]) | protective effect on roflumilast-mediated neutrophilia (male Wistar rats [1]; [5]) | protective effect on roflumilast-mediated weight loss (male Wistar rats [1]; [5]) | weight loss (body weight as percentage change from t0, FIG. 2A) (male Wistar rats [1]) | Diarrhoea (male Wistar rats [2]) | Diarrhoea (male Wistar rats [3]) | Mesentery: Proliferation of fibroblasts (male Wistar rats [3]) | Mesentery: multifocal perivascular mononuclear infiltration (=inflammation parameter) (male Wistar rats [3]) | leukocytosis (white blood cells, FIG. 1B on the left) (male Wistar rats [4]; [6]) | neutrophilia (neutrophils in % of white blood cells, FIG. 1B on the right) (male Wistar rats [4]; [6]) | weight loss (body weight as percentage change from t0, FIG. 1A) (male Wistar rats [4]; p.o. for four days, roflumilast 10 mg/kg at 1300, diclofenac 1 mg/kg at 0800 and 1700, compared with control group) | Mesentery: Proliferation of fibroblasts (male Wistar rats [2]) | Mesentery: multifocal perivascular mononuclear infiltration (=inflammation parameter) (male Wistar rats [2]) | rats which died between day 4 and day 5 of the experiment (male Wistar rats [4]; group of six rats, roflumilast 10 mg/kg p.o. daily)
COc1ccc(-n2nc(C(F)(F)F)cc2-c2ccc(Cl)cc2)cc1 [SC-560] | very similar to the control groups | very similar to the control groups | absolutely no protective effect | absolutely no protective effect | absolutely no protective effect | very similar to the control groups | 0/6 | – | – | – | – | – | – | – | – | –
O=C(O)Cc1ccccc1Nc1c(Cl)cccc1Cl [diclofenac] | – | – | – | – | – | – | – | 0/6 | 0/5 | 0/5 | very similar to the control groups | very similar to the control groups | very similar to the control groups | – | – | –
Cc1ccc(Nc2c(F)cccc2Cl)c(CC(=O)O)c1 [lumiracoxib] | very similar to the control groups | very similar to the control groups | – | – | – | very similar to the control groups | 0/6 | – | – | – | – | – | – | 0/5 | 0/5 | –
O=C(Nc1c(Cl)cncc1Cl)c1ccc(OC(F)F)c(OCC2CC2)c1 [roflumilast] | observed | observed | – | – | – | observed | 2/6 | 5/6 | 4/4 | 4/4 | – | – | – | 5/5 | 5/5 | one rat
